Data set [1] relates to T4 lymphocytes (CEM cell line). The data set can be described thus: Toxicity control: growth inhibition of uninfected T4 lymphocytes (CEM cell line), XTT. To be noted: for Uninfected response: uninfected CEM cells, vs uninfected untreated control, 6 days, 8640 min. The protocol:
(§1) FIGS. 1-4 are plots of the log10 of the meso-2,3 dimercaptosuccinic acid concentrations (as moles/L or Molar) against the measured test values expressed as a percentage of the uninfected, untreated control values.
(§2) 1. Dimercaptosuccinic acid was dissolved in dimethyl sulfoxide (unless otherwise instructed) then diluted 1:100 in cell culture medium before preparing serial half-log10 dilutions. T4 lymphocytes (CEM cell line) were added and after a brief interval HIV-1 is added, resulting in a 1:200 final dilution of the compound. Uninfected cells with the compound serve as a toxicity control, and infected and uninfected cells without the compound serve as basic controls.
(§3) 2. The cultures were incubated at 37° in a 5% carbon dioxide atmosphere for 6 days.
(§4) 3. The tetrazolium salt, XTT, was added to all wells, and cultures were incubated to allow formazan color development by viable cells.
(§5) 4. Individual wells were analyzed spectrophotometrically to quantitate formazan production, and in addition were viewed microscopically for detection of viable cells and confirmation of protective activity.
(§6) 5. Drug-treated virus-infected cells were compared with drug-treated noninfected cells and with other appropriate controls (untreated infected and untreated noninfected cells, drug-containing wells without cells, etc.) on the same plate.
Background: Formazan colour is commonly taken as a measure of viable cells.

The conditions of data set [2]: lead, mercury and arsenic; numerous animal studies; cited from earlier work.
The test system of data set [3] is HIV-1. The data set can be described thus: microbe, parasite or virus in culture.
Source text: as §1
The procedure used to test dimercaptosuccinic acid's activity against Human Immunodeficiency Virus (HIV) is the assay developed by Owen S. Weislow et al. described in "Journal of the National Cancer Institute," Vol. 81, No. 8, April 19, 1989 which is hereby incorporated herein by reference. The assay basically involves the killing of T4 lymphocytes by HIV. Small amounts of HIV are added to cells, and a complete cycle of virus reproduction is necessary to obtain the required cell killing. Agents that interact with virions, cells, or virus gene-products to interfere with viral activities will protect cells from cytolysis. All tests are compared with at least one positive (e.g., AZT-treated) control done at the same time under identical conditions.
as §2, §3, §4, §5, §6
6. The data was reviewed in comparison with four other tests done at the same time and a determination about activity was made.

The conditions of data set [4]: calcium, magnesium, manganese, iron and zinc; cited from earlier work.

“And” between values parts separate entries of the source, which are not always exact repeats. Equal values may be shown once.

In the case of `O=C(O)[C@@H](S)[C@@H](S)C(=O)O` [dimercaptosuccinic acid, meso-2,3 dimercaptosuccinic acid], the Uninfected response in data set [1] (1.40 × 10^-4 Molar, 140 µM, 140 µM) was 80.02% of Control and 81.43% of Control and 107.87% of Control and 105.07% of Control; in data set [1] (1.40 × 10^-5 Molar, 14 µM, 14 µM), 74.62% of Control and 87.58% of Control and 118.28% of Control and 102.83% of Control; in data set [1] (4.30 × 10^-4 Molar, 430 µM, 430 µM), 106.57% of Control and 107.46% of Control and 124.09% of Control and 128.49% of Control; in data set [1] (4.40 × 10^-5 Molar, 44 µM, 44 µM) it was 84.59% of Control and 85.17% of Control and 125.62% of Control and 102.99% of Control. The IC50 in data set [1] (Homo sapiens, CCRF-CEM, 144 h, read-out: 50% inhibitory concentration (IC50)) is above 1400 µM. Moreover, the “Heavy metal chelating effect” value in data set [2] is “effective heavy metal chelating agent for lead, mercury and arsenic”. For the same compound, in data set [3] (1.40 × 10^-4 Molar, HIV-1 infected CEM cells, vs uninfected untreated control, 6 days, 140 µM, 8640 min, 140 µM), the Infected response is 84.32% of Control and 103.60% of Control and 95.01% of Control. In addition, the “Conclusion (determination of activity)” value in data set [3] (HIV-1, CEM cells, 6 days, Tables I-IV) is on record as “CONFIRMED ACTIVE”. For the same compound, in data set [3] (Human immunodeficiency virus 1, CCRF-CEM, in Homo sapiens, 144 h, read-out: Infected response, 1.40 × 10^-4 Molar, HIV-1 infected CEM cells, vs uninfected untreated control, 6 days), the viability at 140 µM was determined as 94.3%. In addition, in data set [3] (drawn from data of Tables I-IV), the “Overall conclusion on antiretroviral effectiveness” value was “effective as a treatment for retroviruses in warm blooded animals”. Moreover, in data set [4], the “Effect on excretion of essential minerals” value is “not to increase the excretion of essential minerals”.

These data come from patent US5464869A, “Use of dimercaptan acids, salts and metabolites thereof as antiretroviral treatments” (Ethicon, Inc., priority 1995, dated 1995).
